Patent US20200179369A1, “TREATMENT OF DIABETIC NEPHROPATHY” (TAKEDA GMBH, priority 2015, published 2020)

Assays:
human mesangial cells = test: Intracellular cAMP level in human mesangial cells (AlphaScreen cAMP functional assay); type: cell-based; settings: co-treatment with forskolin 1 μM
Protocol: (§1) Human mesangial cells were purchased from DS Pharma Biomedical (US). Compound A was obtained from Takeda GmbH, Konstanz, Germany. Forskolin and dimethyl sulfoxide (DMSO) were purchased from Wako Pure Chemical Industries, Ltd (Japan). Recombinant human TGF-β was purchased from R&D systems (USA).
On day 0, human mesangial cells were seeded at a cell density of 2×10^5 cells/well in CSC complete medium (Cell Systems, USA) on type 1 collagen-coated 24-well plate (AGC TECHNO GLASS Co. Ltd., Japan) in an atmosphere of 95% air and 5% CO2 at 37° C. On day 1, the cells were serum starved with CSC medium which is not containing serum and growth factors. On day 2, Compound A at final concentrations of 0.001, 0.01, 0.1, 1 and 10 μM or DMSO (control) was added to the culture medium. […]
For evaluation of the effects of Compound A on intracellular cAMP level, statistical differences between DMSO-treatment and Compound A treatment groups were analyzed with one-tailed Williams' test. For the evaluation of the effects of Compound A on mRNA expression levels, statistical differences between forskolin/TGF-β-treatment and Compound A treatment groups were analyzed with one-tailed Williams' test. To confirm the mRNA induction by TGF-β, mRNA expression levels between untreated and TGF-β-treated group were analyzed by Students t-test. […]

[1] = test system: connective tissue growth factor (CTGF) mRNA; test: TGF-β-induced mRNA expression of connective tissue growth factor (CTGF) in human mesangial cells; type: cell-based; settings: 0.001-10 μM with forskolin 1 μM and TGF-β 3 ng/mL, 6 h
Protocol: as §1
(§2) On day 0, human mesangial cells were seeded at a cell density of 2×10^5 cells/well in CSC complete medium (Cell Systems, USA) on type 1 collagen-coated 24-well plate (AGC TECHNO GLASS Co. Ltd., Japan) in an atmosphere of 95% air and 5% CO2 at 37° C. On day 1, the cells were serum starved with CMC medium which is not containing serum and growth factors. On day 2, Compound A at final concentrations of 0.001, 0.01, 0.1, 1 and 10 μM or DMSO (control) was added to the culture medium. […] For the measurement of mRNA levels of type 1 collagen α1 chain and fibronectin, total RNA isolated at 24 hours after forskolin/TGF-β stimulation was used. mRNA expression levels were measured by quantitative real-time RT-PCR methods with TaqMan gene expression master mix and ABI PRISM 9700 (Life Technologies, USA) with target mRNA specific primer and probe sets [Human connective tissue growth factor (Hs1026927_g1); Human plasminogen activator inhibitor-1 (Hs00167155_m1); Human type 1 collagenal chain (Hs00164004_m1); Human fibronectin (HS00365052_m1); Humanglyceraldehyde 3-phosphate dehydrogenase (HS2758991_g1)]. […]

[2] = test system: plasminogen activator inhibitor-1 (PAI-1) mRNA; test: TGF-β-induced mRNA expression of plasminogen activator inhibitor-1 (PAI-1) in human mesangial cells; type: cell-based; settings: 0.001-10 μM with forskolin 1 μM and TGF-β 3 ng/mL, 6 h
Protocol: as §1, §2

fibronectin mRNA = test: TGF-β-induced mRNA expression of fibronectin in human mesangial cells; type: cell-based; settings: in the presence of forskolin 1 μM, TGF-β 3 ng/mL, 24 h
Protocol: as §1, §2

[3] = test system: diet-induced obese (DIO) mice; test: Body weight, fat and lean mass, 4 weeks treatment in diet-induced obese (DIO) mice; type: in vivo; settings: for body weight change from pretreatment (Day 0): mean ±S.D.
Protocol: Male C57BL/6J mice were obtained from CLEA Japan, Inc. The mice were fed High fat diet D12451 (Research diets, Inc) from 5 week to 54-week old and water ad libitum.
All mice were housed individually in animal cages and used for the study after 2 weeks of acclimation period. Animal groups (n=7) were treated with either vehicle (0.5 w/v % methylcellulose, p.o.) or Compound A (1 mg/kg or 3 mg/kg, p.o. suspension in 0.5w/v % methylcellulose solution) in the evening once a day for 4 weeks from 50 weeks of age. Body weight was measured 2 or 3 times per week. Regarding body composition fast mass and lean mass were measured.
Body composition (fat mass and lean mass) was measured by Echo-MRI-900 (ALOKA Japan).
All data are presented as mean ±S.D. For evaluation of the effects of Compound A, statistical significances between vehicle (p.o.) and Compound A treated groups were analysed with one-tailed Williams' test or Shirley-Williams test when the variances among the groups were homogeneous or heterogeneous, respectively. The p-values less than 0.025 were considered statistically significant in one-tailed Williams' test or Shirley-Williams test. Body weight change from pretreatment (Day 0) was calculated using the following formula: [(BW−BW at Day 0)/BW at Day 0]×100.

SMILES: CCOc1cc2c(cc1OC)C(c1ccc(=O)n(C)c1)=N[C@@H]1CC[C@@H](O)C[C@H]21 [Compound A, 5-((2R,4aR,10bR)-9-Ethoxy-2-hydroxy-8-methoxy-1,2,3,4,4a,10b-hexahydro-phenanthridin-6-yl)1-methyl-1H-pyridin-2-one]
- effect on intracellular cAMP accumulation (human mesangial cells; 0.001-10 μM): further enhanced intracellular cAMP accumulation in a concentration dependent manner
- concentration at which the significant effect on intracellular cAMP accumulation was observed (human mesangial cells): ≥ 0.1 µM
- effect on TGF-β-induced mRNA expression of CTGF [1]: further suppressed by the treatment with Compound A in a concentration-dependent manner
- effect on TGF-β-induced mRNA expression of PAI-1 [2]: further suppressed by the treatment with Compound A in a concentration-dependent manner
- concentration at which the inhibitory effect on mRNA expression of fibronectin was further enhanced (fibronectin mRNA): ≥ 0.1 µM
- body weight reduction corrected with vehicle (p.o.)-treated body weight change ([3]; 1 mg/kg p.o. once a day): −8.7±3.5%
- body weight change from pretreatment (Day 0) ([3]; 1 mg/kg p.o. once a day): −4.9±3.5%
- body weight change from pretreatment (Day 0) ([3]; 3 mg/kg p.o. once a day): −17.2±4.0%
- effect on fat mass ([3]; 1 and 3 mg/kg p.o. once a day): dose dependently and significantly decreased fat mass
- effect on lean mass ([3]; 1 and 3 mg/kg p.o. once a day): without affecting lean mass
